ChEMBL document CHEMBL4007387, “Therapeutic evolution of benzimidazole derivatives in the last quinquennial period” (Eur J Med Chem, 2017)

Assays:
HeLa = test: Antiproliferative activity against human HeLa cells after 48 hrs by MTT assay; format: functional, cell-based
MCF7 = test: Antiproliferative activity against human MCF7 cells after 48 hrs by MTT assay; format: functional, cell-based; settings: MCF7, 48 h
PBMC = test: Antiproliferative activity against human PBMC after 48 hrs by MTT assay; format: cell-based
Hep 3B2 = test: Antiproliferative activity against human Hep3B cells after 48 hrs by MTT assay; format: functional, cell-based
NIH3T3 = test: Antiproliferative activity against mouse NIH/3T3 cells after 72 hrs by real-time cell analysis; format: cell-based; settings: NIH3T3, 72 h

IC50 (HeLa) | IC50 (MCF7) | SMILES | IC50 (PBMC) | IC50 (Hep 3B2) | IC50 (NIH3T3)
5.34 µM | 24.2 µM | Cc1nc2ccccc2n1CC(=O)NN | 23 µM | 40.5 µM | –
– | – | COc1ccc2[nH]c(SCC(=O)Nc3ccc(-c4csc(-c5ccccc5)n4)cc3)nc2c1 | – | – | 74.6 µM
